The melting point is the temperature, or range, at which the solid turns liquid. In turn, `CCOC(=O)N1N=C(c2ccc(N)cc2)c2cc(Br)ccc2CC1C` (stereo unspecified) gave a melting point of 114 to 117 °C.
In the case of `CCOC(=O)NC(=O)C(c1cccc(C)c1)c1ncc(C(F)(F)F)cc1Cl` (stereo unspecified) it was 146 to 147 °C; in that of `COC(=O)c1cc(N)cc(C(F)(F)F)n1`, 114 °C.
In the case of `Cc1ccc2[nH]c(=S)c(C(=O)c3ccc([N+](=O)[O-])cc3)c(O)c2c1` it was 247 °C; in that of `O=Cc1cccc2oc(-c3ccccc3)nc12`, 116 °C.
In the case of `Cc1c(OCCCCSCc2ccncc2)ccnc1CNc1cnc2ccccc2c1` it was 128 to 129 °C; in that of `CN(C)C(=O)CCc1c2n(c(=O)c3ccccc13)CCc1ccccc1-2`, 192 to 194 °C; in that of `O=c1nc(-c2cccc(S(=O)Cc3ccccc3)n2)sc2ccccc12` (stereo unspecified), 208 to 210 °C.
Turning to `CC(=O)OC1CSC(Oc2cncc(-c3ccc(CO)cc3)c2)C(OC(C)=O)C1OC(C)=O` (stereo unspecified), the melting point lay within 132 to 133 °C.
In the case of `Cc1oc(-c2ccccc2)nc1CCOc1ccc(C=O)cc1` it was 79 to 81 °C.
In the case of `CNC(=O)ON=C1n2ccnc2S(=O)C1(C)C` (stereo unspecified), the melting point lay in the range of 148 to 149 °C.
In the case of `COC(=O)c1cc(N)nc(-c2ccc(Cl)cc2F)n1` it was 210 to 213 °C; in that of `O=C(c1ccc(-c2ccc(Cl)cc2)cc1)N1CCCc2cc(C=CCN3CCCCC3)ccc21`, 141 to 143 °C; in that of `N#Cc1ccccc1C(=O)c1ccc(S)cc1`, 102 °C.
The compound `COc1ccc(NC(=O)NCCCl)cc1OC` registered a melting point of 117 °C.
In the case of `O=C(Nc1cccnc1)N1CCc2cc(-c3ccccc3)ccc21` it was 241 to 242 °C; in that of `Cc1ccc2c(c1)c(N1CCN(C(=O)c3cccs3)CC1)c(C#N)c(=O)n2CCN1CCOCC1`, 207 °C; in that of `CCCCCCCCCCCCOc1ccc(C(=O)c2ccccc2)cc1`, 63 to 64 °C.
Regarding `c1nc2c(cc1NC1=NCCN1)CCCC2`, the melting point lay in the range of 201 to 203 °C.
In the case of `COc1ccc2c(C(=O)N[C@H](Cc3ccc(C(F)(F)F)cc3)[C@@H](O)c3ccc(F)cc3)cccc2c1` (racemic) it was 193 to 194 °C.
In the case of `CC(=O)Nc1ccc(C(C)=O)c(F)c1F` it was 149 to 152 °C; in that of `NC(=O)/C=C/c1cc([N+](=O)[O-])ccc1Cl`, 208 to 210 °C; in that of `CC1CC(=O)c2c(OS(=O)(=O)c3cccs3)ccc(Br)c2C1` (stereo unspecified), 110 to 113 °C.
In the case of `O=c1c(-c2ccccc2)nc2ccccc2n1CC(F)F` it was 85 to 88 °C; in that of `O=C(NC(c1ccccc1)C(O)c1ccccc1)OCc1ccccc1` (stereo unspecified), 152 °C; in that of `COc1ccc2c(-c3cccc(F)c3F)noc2c1Cl`, 184 to 189 °C.
The compound `COc1ccc(-n2c(-c3ccc(S(N)(=O)=O)cc3)cc(C)c2Cl)cc1` gave a melting point of 155 to 156 °C.
In the case of `O=C(CCNC(=O)[C@@H](O)Cc1ccccc1)OCc1ccccc1` it was 34 to 38 °C; in that of `Cc1ccc(S(=O)(=O)OCC2CN(C(=O)Oc3ccccc3)CCO2)cc1` (stereo unspecified), 101 to 103 °C; in that of `CS(=O)(=O)c1ccc(-c2sc(-c3ccccc3Cl)nc2-c2ccccc2Cl)cc1`, 143 to 147 °C.
`CC(C)(C)C(=O)OCC1OC(OC(=O)C(C)(C)C)C(OC(=O)C(C)(C)C)C(OC(=O)C(C)(C)C)C1OC(=O)C(C)(C)C` (stereo unspecified) showed a melting point of 153 to 156 °C.
In the case of `COc1cc(C(=O)O)ccc1Cn1nnc2ccc(NC(=O)OC3CCCC3)cc21` it was 237 to 239 °C; in that of `C=CC=CCC1CC(NC(=O)C(F)(F)F)C(O)C(C)O1` (stereo unspecified), 111 to 112 °C; in that of `Cc1c(S(=O)(=O)c2ccccc2)cc(C(C)(C)C)c(O)c1C(=O)Nc1ccc([N+](=O)[O-])cc1Cl`, 202 to 204 °C.
In the case of `CC1(COc2cc(/C=C/C(=O)O)n(Cc3ccc(C(F)(F)F)cc3Cl)n2)COC1` it was 148 to 149 °C; in that of `CC(C)(C)C(=O)OCNc1nc(OCc2ccc(F)cc2)ncc1F`, 134 to 135 °C; in that of `COc1ccc(-c2nc(SCCO)sc2-c2ccc(OC)cc2)cc1`, 83 to 84 °C.
In the case of `N#Cc1ccc2c(c1)C=C(C(=O)O)C(C(F)(F)F)O2` (stereo unspecified) it was 102 to 106 °C.
Take `Nc1c(NCc2ccccc2F)ccnc1Cl`: the melting point lay in the range of 181 to 187 °C.
In the case of `Fc1ccc(-c2cc(N3CCC(c4ncc[nH]4)CC3)c3sccc3n2)cc1` it was 95 °C.
In the case of `COc1ccc2c(c1[N+](=O)[O-])CN(S(C)(=O)=O)CC(=O)N2` it was 222 to 226 °C; in that of `O=c1cc(-c2ccoc2)c2ccc(Sc3cccc(-c4ccccc4)n3)cc2o1`, 175 to 178 °C.
In the case of `O=C1NC(=O)C(CC#Cc2cc(C(F)(F)F)cc(C(F)(F)F)c2)(S(=O)(=O)c2ccccn2)S1` (stereo unspecified) it was 150 to 152 °C; in that of `CN(CCCNc1ncc(Cc2cccc(Cl)c2)c(=O)[nH]1)c1ccccn1`, 105 to 107 °C; in that of `CCCCCCCCS(=O)c1ccc(CC(COC(C)=O)(COC(C)=O)NC(C)=O)cc1` (stereo unspecified), 70 to 72 °C.
Regarding `Cc1ccc(-c2ccccc2C(=O)N(C)NC(N)=O)cc1`, the melting point was in the range of 217 to 218 °C.
In the case of `NC(=O)N(O)CC=Cc1ccc(-c2ccccc2)o1` it was 157 to 158 °C; in that of `Cc1cccc(OCCO)c1`, 76 to 78 °C; in that of `CCCCNS(=O)(=O)CC(O)C(O)C(CC1CCCCC1)NC(=O)c1ccccc1` (stereo unspecified), 153 to 155 °C.
In the case of `CC1=CN(C)C2=NC(C)N(c3ccc(C#N)cc3)C2=C1` (stereo unspecified) it was 260 to 262 °C; in that of `CCOC(=O)c1cn(CC)c2cc(N3CCN(C)CC3)ncc2c1=O`, 176 to 177 °C; in that of `COc1ccc(CNc2nc(SC)ncc2C=O)cc1Cl`, 124 to 125 °C.
In the case of `CCCCCNC(=O)CCCCC` it was 37 °C.
Compound `O=c1oc(-c2cccc(-c3ccccc3)c2)cc(O)c1Sc1ccccc1CC1CC1` had a melting point of 88 °C.
In the case of `COC1=C(C)C(=O)C(OC)=C(CCCCCC2=C(OC)C(=O)C(C)=C(OC)C2=O)C1=O` it was 84 to 86 °C; in that of `CCOC(=O)C1=CC(CF)(CF)Oc2ccc(I)cc21`, 89 to 90 °C; in that of `Cc1c(-c2ccncc2)oc2c1C(=O)C(C)(C)CC2`, 133 to 134 °C.
In turn, `Cn1cc(C=C2SC(=S)N(CC(=O)O)C2=O)c2ccccc21` displayed a melting point of 282 to 288 °C.
In the case of `O=C(Nc1ccc(SCCCCCCCCCCCCC(Cl)(Cl)C(=O)O)cc1)c1ccc(Cl)cc1` it was 167 to 168 °C.
In the case of `Clc1ccc2[nH]c(Sc3ccccc3)c(C3=NCCN3)c2c1` it was 178 °C; in that of `CSc1ccc2c(c1)C(=O)Cc1cc(C)ccc1O2`, 102 to 103 °C.
In the case of `CN1CCN(CCCOc2ccc(Nc3ncc4ccc(-c5cccnc5)n4n3)cc2)CC1` it was 135 to 139 °C; in that of `Cc1ccn(-c2ccc(C)c(C(=O)c3cccc4c3Nc3ncccc3CN4)c2)n1`, 138 to 140 °C.
`CCc1ccc(C(N)=O)c([N+](=O)[O-])c1` gave a melting point of 175 °C.
In the case of `COc1ccc(Sc2cnc(N)s2)cc1` it was 119 to 120 °C; in that of `COc1ccc2cc(C(N)=O)ccc2n1`, 212 to 214 °C; in that of `Cc1cccc(-c2nc(N)sc2-c2ccnc(NCc3ccccc3)c2)c1`, 178 to 179 °C.
`O=C(NN1CCCCC1)c1nc(-c2ccc(Cl)cc2Cl)n(-c2ccc(Cl)cc2)c1Br` gave a melting point of 182 to 183 °C.
In the case of `O=S(=O)(Nc1ncc(Br)nc1OCc1cnccn1)c1cccc(Cl)c1Cl` it was 207 to 209 °C.
`COc1cc(NNc2nccc(Nc3ccc(N(C)C)cc3)n2)cc(OC)c1OC`: the melting point is 212 °C.
In the case of `COC(=O)c1nc(-c2ccccc2)ccc1O` it was 100 to 101 °C; in that of `CN1CC(=Cc2ccccc2Cl)C(=O)C(=Cc2ccccc2Cl)C1`, 148 to 150 °C.
Consider `CCOc1ccc(C=CC(=O)c2c(O)cc(OCC)cc2OCC)cc1`, for which the melting point stood at 131 °C.
In the case of `O=C(O)c1ccccc1OCCOc1cccc2ccccc12` it was 205 to 207 °C; in that of `CS(=O)(=O)Nc1cccc(OCc2c[nH]cn2)c1`, 178 to 180 °C.
In the case of `Cc1cncnc1N1CCC(C(N)=O)CC1` it was 182 to 184 °C; in that of `O=C(OCc1ccccc1)C1=C(c2ccccc2)C(c2ccccc2)OC1=O` (stereo unspecified), 111 to 114 °C.
As for `Cc1ccc(C)c(OCCC(O)C(C)(C)C(=O)O)c1` (stereo unspecified), the melting point worked out at 100 °C.
In the case of `CCOC(=O)c1oc2c(-c3ccc(F)cc3)c(-c3ccc(S(C)(=O)=O)cc3)nn2c1C` it was 203 to 204 °C; in that of `CCOC(=O)C1=C(COCc2nnn(CCNC(=NC#N)SC)n2)NC(C)=C(C(=O)OC)C1c1cccc(Cl)c1Cl` (stereo unspecified), 78 to 80 °C; in that of `CCCCCCCCCCNC(=O)c1ccc(N)cc1`, 117 to 119 °C.
In the case of `Cc1ccc2c(c1)cc(CCCC(=O)O)n2S(=O)(=O)c1ccc2ncsc2c1` it was 128 °C; in that of `CN(C)Cc1nc(C(=O)O)nn1-c1ccc(Cl)cc1C(=O)c1ccccc1Cl`, 110 to 113 °C.
In the case of `Oc1ccc2cc(-c3ccc(-c4ccccc4)[nH]3)ccc2c1` it was 210 °C; in that of `O=C1NC(=O)C(Cc2ccc(OCCN3c4ccccc4Sc4ccccc43)cc2)S1` (stereo unspecified), 68 to 70 °C; in that of `NCC(=O)N1Cc2ccccc2Oc2ccc(Cl)cc21`, 108 to 109 °C.
As for `C#CC1(O)C(C)CC2C3CCC4=CC(=O)CCC4(C)C3CCC21C` (stereo unspecified), the melting point was more than 230 °C.
Compound `COc1ccc(I)cc1CN` had a melting point of 95 to 97 °C.
In the case of `CN(C)c1nc(=O)[nH]n1C` it was 222 °C.
In the case of `CCOC(Cc1ccc(NC/C=C/c2ccc(OS(C)(=O)=O)cc2)cc1)C(=O)O` (stereo unspecified) it was 146 to 148 °C.
In the case of `CC1CCNC(=C[N+](=O)[O-])N1c1ccc(Cl)nc1` (stereo unspecified) it was 184 °C.
